Experimental data reported in patent US5668152A, “Protein kinase C inhibitors” (priority 1995, dated 1997).
Where two headings read alike, the source gives them in different places.

Key:
protein kinase C alpha = protein kinase C alpha (Homo sapiens, UniProt P17252); assay: PKC Enzyme assay, alpha isozyme; assay type: biochemical
Description: (§1) PKC enzymes=alpha, beta I, beta II, gamma, delta, epsilon, eta and zeta.
(§2) Assay components in a total volume of 250 μL are the following:
(§3) Vesicles consisting of 120 μg/mL phosphatidylserine (Avanti Polar Lipids) and sufficient diacylglycerol (Avanti Polar Lipids) to activate the enzyme to maximum activity in 20 mM HEPES buffer (Sigma, St. Louis, Mo.), pH 7.5, 940 μM calcium chloride (Sigma, St. Louis, Mo.) for assaying the alpha, beta I, beta II and gamma enzyme only, 1 mM EGTA for all the enzymes, 10 mM magnesium chloride (Sigma, St. Louis, Mo.) and 30 μM (gamma-32P) ATP (DuPont). For all the enzymes either histone type HL (Worthington) or myelin basic protein is used as substrate. The assay is started by addition of protein kinase C enzyme incubated at 30° C. for 10 minutes and stopped by adding 0.5 mL of cold trichloroacetic acid (Amresco) followed by 100 μL of 1 mg/mL bovine serum albumin (Sigma, St. Louis, Mo.). The precipitate is collected by vacuum filtration on glass fiber filters employing a TOMTEC™ filtration system and quantified by counting in a beta scintillation counter.

protein kinase C beta-1 = protein kinase C beta-1 (Homo sapiens, UniProt P05771); assay: PKC Enzyme assay, beta I isozyme; assay type: biochemical
Description: as §1, §2, §3

protein kinase C beta-2 = protein kinase C beta-2 (Homo sapiens, UniProt P05771); assay: PKC Enzyme assay, beta II isozyme; assay type: biochemical; conditions: PKC beta-2; 30 μM ATP, 30° C., 10 minutes; read-out: IC50 β2
Description: as §1, §2, §3

protein kinase C gamma = protein kinase C gamma (Homo sapiens, UniProt P05129); assay: PKC Enzyme assay, gamma isozyme; assay type: biochemical
Description: as §1, §2, §3

protein kinase C delta = protein kinase C delta (Homo sapiens, UniProt Q05655); assay: biochemical
Description: as §1, §2, §3

protein kinase C epsilon = molecular target: T1, protein kinase C epsilon (Homo sapiens, UniProt Q02156); assay: PKC Enzyme assay, epsilon isozyme; assay type: biochemical
T1 sequence (Q02156 1-737): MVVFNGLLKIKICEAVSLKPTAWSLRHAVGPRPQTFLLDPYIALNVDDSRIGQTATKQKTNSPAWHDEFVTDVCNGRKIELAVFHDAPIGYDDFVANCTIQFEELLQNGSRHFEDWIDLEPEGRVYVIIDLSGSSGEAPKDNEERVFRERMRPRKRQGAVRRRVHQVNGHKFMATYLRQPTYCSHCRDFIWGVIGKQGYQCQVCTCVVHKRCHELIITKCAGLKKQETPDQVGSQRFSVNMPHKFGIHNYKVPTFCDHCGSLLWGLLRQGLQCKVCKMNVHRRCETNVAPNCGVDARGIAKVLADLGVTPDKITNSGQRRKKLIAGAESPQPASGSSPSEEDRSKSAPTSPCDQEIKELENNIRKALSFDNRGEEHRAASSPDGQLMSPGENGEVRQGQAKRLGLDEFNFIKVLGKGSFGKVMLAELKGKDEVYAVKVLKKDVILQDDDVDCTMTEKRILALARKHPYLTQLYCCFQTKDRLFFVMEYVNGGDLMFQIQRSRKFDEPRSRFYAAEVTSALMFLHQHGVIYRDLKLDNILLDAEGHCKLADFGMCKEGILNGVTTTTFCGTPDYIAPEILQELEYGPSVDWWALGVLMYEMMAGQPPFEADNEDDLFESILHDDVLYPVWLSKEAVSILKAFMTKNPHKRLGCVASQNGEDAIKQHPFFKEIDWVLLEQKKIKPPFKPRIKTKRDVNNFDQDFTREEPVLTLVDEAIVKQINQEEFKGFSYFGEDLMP
Description: as §1, §2, §3

protein kinase C zeta = molecular target: T2, protein kinase C zeta (Homo sapiens, UniProt Q05513); assay: PKC Enzyme assay, zeta isozyme; assay type: biochemical
T2 sequence (Q05513 1-592): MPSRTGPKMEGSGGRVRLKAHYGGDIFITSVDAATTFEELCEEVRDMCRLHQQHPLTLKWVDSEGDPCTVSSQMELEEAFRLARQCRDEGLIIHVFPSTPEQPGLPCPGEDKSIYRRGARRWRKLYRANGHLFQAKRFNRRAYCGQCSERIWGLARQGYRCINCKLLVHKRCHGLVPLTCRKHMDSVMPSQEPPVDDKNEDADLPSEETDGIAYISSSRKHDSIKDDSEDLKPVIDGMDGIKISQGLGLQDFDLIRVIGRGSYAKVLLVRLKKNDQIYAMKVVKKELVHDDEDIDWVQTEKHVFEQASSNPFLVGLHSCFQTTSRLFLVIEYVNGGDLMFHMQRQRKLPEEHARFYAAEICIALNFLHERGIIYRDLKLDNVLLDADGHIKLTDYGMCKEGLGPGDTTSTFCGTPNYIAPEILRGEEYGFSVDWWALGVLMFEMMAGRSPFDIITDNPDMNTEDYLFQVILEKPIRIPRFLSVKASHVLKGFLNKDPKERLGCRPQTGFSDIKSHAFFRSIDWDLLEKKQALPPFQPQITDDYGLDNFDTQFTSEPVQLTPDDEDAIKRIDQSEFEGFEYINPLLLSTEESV
Description: as §1, §2, §3

protein kinase C eta = protein kinase C eta (Homo sapiens, UniProt P24723); assay: PKC Enzyme assay, eta isozyme; assay type: biochemical; conditions: PKC eta; 30 μM ATP, 30° C., 10 minutes; read-out: IC50 η
Description: as §1, §2, §3

[1] = PKC alpha, 30 μM ATP, 30° C., 10 minutes, read-out: IC50 α
[2] = PKC beta-1, 30 μM ATP, 30° C., 10 minutes, read-out: IC50 β1
[3] = PKC gamma, 30 μM ATP, 30° C., 10 minutes, read-out: IC50 γ
[4] = PKC delta, 30 μM ATP, 30° C., 10 minutes, read-out: IC50 δ
[5] = PKC epsilon, 30 μM ATP, 30° C., 10 minutes, read-out: IC50 ε
[6] = PKC zeta, 30 μM ATP, 30° C., 10 minutes, read-out: IC50 ζ

Chain of protein kinase C beta-2 (P05771 1-673 isoform P05771-2): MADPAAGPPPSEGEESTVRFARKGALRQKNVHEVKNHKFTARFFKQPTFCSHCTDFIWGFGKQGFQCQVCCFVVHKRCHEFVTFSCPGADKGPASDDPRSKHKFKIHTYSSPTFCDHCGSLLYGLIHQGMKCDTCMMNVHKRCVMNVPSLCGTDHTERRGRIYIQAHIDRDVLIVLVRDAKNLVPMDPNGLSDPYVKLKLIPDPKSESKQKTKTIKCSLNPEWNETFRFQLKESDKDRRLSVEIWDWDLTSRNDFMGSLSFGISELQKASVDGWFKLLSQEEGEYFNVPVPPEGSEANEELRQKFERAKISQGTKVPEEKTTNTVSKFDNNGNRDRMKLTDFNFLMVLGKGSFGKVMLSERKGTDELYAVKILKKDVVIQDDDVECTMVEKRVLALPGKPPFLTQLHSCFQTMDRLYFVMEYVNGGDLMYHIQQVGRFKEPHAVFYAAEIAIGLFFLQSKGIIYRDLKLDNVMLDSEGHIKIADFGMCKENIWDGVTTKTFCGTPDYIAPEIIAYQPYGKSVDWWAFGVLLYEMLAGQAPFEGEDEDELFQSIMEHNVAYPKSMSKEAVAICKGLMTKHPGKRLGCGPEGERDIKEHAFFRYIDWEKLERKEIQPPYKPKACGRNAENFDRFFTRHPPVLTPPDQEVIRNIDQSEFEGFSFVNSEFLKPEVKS
Chain of protein kinase C beta-1 (P05771 whole entry): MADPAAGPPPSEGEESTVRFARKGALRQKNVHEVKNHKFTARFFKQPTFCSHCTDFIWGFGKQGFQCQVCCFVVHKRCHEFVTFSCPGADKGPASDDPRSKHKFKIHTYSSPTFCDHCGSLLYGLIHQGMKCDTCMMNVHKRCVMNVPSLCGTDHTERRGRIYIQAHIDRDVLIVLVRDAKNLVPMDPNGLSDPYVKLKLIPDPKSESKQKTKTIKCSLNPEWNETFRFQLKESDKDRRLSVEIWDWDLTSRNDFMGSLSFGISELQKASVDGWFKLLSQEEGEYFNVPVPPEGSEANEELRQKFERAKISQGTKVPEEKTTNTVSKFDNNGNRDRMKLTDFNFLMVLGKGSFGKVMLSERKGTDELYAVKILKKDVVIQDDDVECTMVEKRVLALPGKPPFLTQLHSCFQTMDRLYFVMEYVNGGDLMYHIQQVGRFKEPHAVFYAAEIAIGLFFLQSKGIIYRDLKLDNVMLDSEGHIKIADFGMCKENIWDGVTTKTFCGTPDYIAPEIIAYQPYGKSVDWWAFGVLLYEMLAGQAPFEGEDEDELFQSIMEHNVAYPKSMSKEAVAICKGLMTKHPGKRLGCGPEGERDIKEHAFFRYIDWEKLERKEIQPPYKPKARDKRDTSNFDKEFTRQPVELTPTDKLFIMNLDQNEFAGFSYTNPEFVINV
Chain of protein kinase C delta (Q05655 whole entry): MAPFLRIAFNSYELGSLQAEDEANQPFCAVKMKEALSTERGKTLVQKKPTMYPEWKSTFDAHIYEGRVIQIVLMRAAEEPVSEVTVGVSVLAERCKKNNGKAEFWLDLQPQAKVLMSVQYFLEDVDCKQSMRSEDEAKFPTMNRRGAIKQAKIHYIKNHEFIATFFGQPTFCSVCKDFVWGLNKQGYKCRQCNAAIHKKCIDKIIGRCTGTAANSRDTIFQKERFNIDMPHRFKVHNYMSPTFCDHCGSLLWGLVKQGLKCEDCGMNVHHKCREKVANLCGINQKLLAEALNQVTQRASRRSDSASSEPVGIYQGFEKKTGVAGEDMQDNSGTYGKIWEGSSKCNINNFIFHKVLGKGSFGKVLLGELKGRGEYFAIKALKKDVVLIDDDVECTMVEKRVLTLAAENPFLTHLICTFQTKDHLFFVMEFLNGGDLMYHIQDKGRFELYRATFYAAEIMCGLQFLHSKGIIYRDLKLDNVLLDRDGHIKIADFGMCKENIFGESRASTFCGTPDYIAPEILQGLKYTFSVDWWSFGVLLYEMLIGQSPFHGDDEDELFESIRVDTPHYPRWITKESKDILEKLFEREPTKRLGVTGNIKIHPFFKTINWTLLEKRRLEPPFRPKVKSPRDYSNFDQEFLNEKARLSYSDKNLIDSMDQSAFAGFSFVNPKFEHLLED
Chain of protein kinase C eta (P24723 whole entry): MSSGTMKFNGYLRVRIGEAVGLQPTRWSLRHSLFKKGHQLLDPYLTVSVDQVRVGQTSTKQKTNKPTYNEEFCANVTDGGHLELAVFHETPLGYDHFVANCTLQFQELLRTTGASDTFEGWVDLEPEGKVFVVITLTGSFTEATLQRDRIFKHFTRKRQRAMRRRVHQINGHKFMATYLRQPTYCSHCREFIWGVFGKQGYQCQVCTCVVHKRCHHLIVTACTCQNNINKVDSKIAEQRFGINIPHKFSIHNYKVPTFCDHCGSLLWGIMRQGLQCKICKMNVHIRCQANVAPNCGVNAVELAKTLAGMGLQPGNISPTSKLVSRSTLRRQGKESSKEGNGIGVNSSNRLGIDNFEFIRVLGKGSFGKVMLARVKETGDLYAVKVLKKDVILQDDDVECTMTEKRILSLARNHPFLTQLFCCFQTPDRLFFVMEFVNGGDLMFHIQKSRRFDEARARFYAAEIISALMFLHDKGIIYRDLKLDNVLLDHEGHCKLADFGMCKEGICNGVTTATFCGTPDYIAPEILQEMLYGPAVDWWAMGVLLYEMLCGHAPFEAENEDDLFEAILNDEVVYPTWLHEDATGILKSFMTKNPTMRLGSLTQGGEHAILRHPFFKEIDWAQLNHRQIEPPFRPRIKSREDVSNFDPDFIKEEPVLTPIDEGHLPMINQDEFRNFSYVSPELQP

Structure (SMILES) | IC50 (protein kinase C alpha; [1]) [µM] | IC50 (protein kinase C beta-1; [2]) [µM] | IC50 (protein kinase C beta-2) [µM] | IC50 (protein kinase C gamma; [3]) [µM] | IC50 (protein kinase C delta; [4]) [µM] | IC50 (protein kinase C epsilon; [5]) [µM] | IC50 (protein kinase C zeta; [6]) [µM] | IC50 (protein kinase C eta) [µM] | IC50 (protein kinase C alpha) [µM] | IC50 (protein kinase C beta-1) [µM] | IC50 (protein kinase C gamma) [µM] | IC50 (protein kinase C delta) [µM] | IC50 (protein kinase C epsilon) [µM] | IC50 (protein kinase C zeta) [µM]
Cn1cc(C2=C(c3cn(CCOC4C[C@H](N=[N+]=[N-])[C@@H](CO)O4)c4ccccc34)C(=O)NC2=O)c2ccccc21 (some centres unmarked) [Example 61] | 3.6 | 0.16 | 0.041 | 4.8 | 3.2 | 20 | 20 | 0.75 |  |  |  |  |  | 
CN1CCC(n2cc(C3=C(c4c[nH]c5ccccc45)C(=O)NC3=O)c3ccccc32)CC1 [Example 51] | 0.2 | 0.02 | 0.01 | 0.5 | 0.4 | 0.05 | 5 | 0.04 |  |  |  |  |  | 
CCOC(=O)CN1CCC(n2cc(C3=C(c4cn(C)c5ccccc45)C(=O)NC3=O)c3ccccc32)CC1 [Example 38] | 1 | 0.05 | 0.05 | 5 | 3 | 0.4 | > 100 | 2 |  |  |  |  |  | 
CC(=O)NCC1OC(OCCCCn2cc(C3=C(c4cn(C)c5ccccc45)C(=O)N(C(C)=O)C3=O)c3ccccc32)CC1OC(C)=O (centres unmarked) [Example 70] | 3.3 | 0.32 | 0.19 | 3 | 3.2 | 70 | 37 | 1.4 |  |  |  |  |  | 
Cn1cc(C2=C(c3cn(CCO[C@@H]4C[C@H](O)[C@@H](CN=[N+]=[N-])O4)c4ccccc34)C(=O)NC2=O)c2ccccc21 [Example 58] | 4.9 | 0.24 | 0.27 | 38 | 4.5 | 12 | 46 | 2.5 |  |  |  |  |  | 
CCOC(=O)N1CCC(Cn2cc(C3=C(c4cn(C)c5ccccc45)C(=O)NC3=O)c3ccccc32)CC1 [Example 69, 3-[1-(1N-ethycarbomate-piperidin-4-yl-methylene)-indol-3-yl]-4-[1-methyindol-3-yl]-1H-pyrrole-2,5-dione] | 6.5 | 0.39 | 0.21 | 8.2 | 7.3 | > 100 | > 100 | 3.1 |  |  |  |  |  | 
Cn1cc(C2=C(c3cn(CCOC4C[C@@H](N=[N+]=[N-])[C@@H](CO)O4)c4ccccc34)C(=O)NC2=O)c2ccccc21 (some centres unmarked) [Example 62] | 4.4 | 0.2 | 0.1 | 5.2 | 3.9 | 42 | 41 | 2.6 |  |  |  |  |  | 
O=C1NC(=O)C(c2cn(C3CCNCC3)c3ccccc23)=C1c1c[nH]c2ccccc12 [Example 50] | 0.3 | 0.03 | 0.02 | 0.6 | 0.5 | 0.5 | 3 | 0.1 |  |  |  |  |  | 
CN1CCC(Cn2cc(C3=C(c4cn(C)c5ccccc45)C(=O)NC3=O)c3ccccc32)CC1 [Example 68, 3-(1-Methyl-indol-3-yl)-4-[1-(1-methyl-piperidin-4-ylmethylene)-indol-3-yl]-1H-pyrrole-2,5-dione] | 1.4 | 0.047 | 0.033 | 2.4 | 1.9 | 4.6 | 9.8 | 0.11 |  |  |  |  |  | 
Cn1cc(C2=C(c3cn(C4CCN(c5ccccn5)CC4)c4ccccc34)C(=O)NC2=O)c2ccccc21 [Example 48] | 2 | 0.05 | 0.04 | 5 | 2 | 2 | > 100 | 2 |  |  |  |  |  | 
Cn1cc(C2=C(c3cn(CCCCOC4CC(O)C(CN)O4)c4ccccc34)C(=O)NC2=O)c2ccccc21 (centres unmarked) [Example 53] | 3.2 | 0.41 | 0.23 | 4.3 | 3.5 | 6.6 | 51 | 1.7 |  |  |  |  |  | 
Cn1cc(C2=C(c3cn(C4CCN(Cc5ccccc5)CC4)c4ccccc34)C(=O)NC2=O)c2ccccc21 [Example 47] |  |  | 0.05 |  |  |  |  | 0.5 | 1 | 0.1 | 4 | 2 | 3 | 52
CC(C)N1CCC(n2cc(C3=C(c4cn(C)c5ccccc45)C(=O)NC3=O)c3ccccc32)CC1 [Example 8, 3-[1-(1-i-Propyl-piperidin-4-yl)-1H-indol-3-yl]-4-(1-methyl-1H-indol-3-yl)-pyrrole-2,5-dione] | 0.34 | 0.019 | 0.026 | 1.3 | 0.97 | 0.39 | 9.3 | 0.13 |  |  |  |  |  | 
